Experimental data published in patent US20240389594A1 (priority 2020, published 2024).
Where two headings read alike, the source gives them in different places.

How the values were obtained:
Assay type in all cases: cell-based
[1] = system: Colletotrichum orbiculare; assay: Microtiterplate test, anthracnose caused by Colletotrichum orbiculare (COLLLA), Example 1; conditions: single compound, 7 days
Pyricularia oryzae = conditions: PYRIOR, single compound, 7 days
Septoria tritici [2] = conditions: 7 days
Alternaria solani = assay: Microtest, early blight caused by Alternaria solani (ALTESO), Example 1; conditions: single compound, 7 days
Botrytis cinerea = system: Botrytis cinerea
Septoria tritici [3] = assay: Microtest, leaf blotch on wheat caused by Septoria tritici (SEPTTR), Example 2; conditions: single compound, 7 days

CCC(=O)Oc1c(OC)ccnc1C(=O)N[C@@H](C)C(=O)O[C@@H](C)[C@@H](C)c1ccccc1C [Compound II-1, [(1 S,2S)-1-methyl-2-(o-tolyl)propyl] (2S)-2-[(4-methoxy-3-propanoyloxy-pyridine-2-carbonyl)amino]propanoate]
Observed efficacy ([1]; 0.25 ppm): 0%
Observed efficacy ([1]; 1 ppm): 0%
Observed efficacy (Pyricularia oryzae; 1 ppm): 10%
Observed efficacy (Septoria tritici [2]): 15%
Observed efficacy (Alternaria solani; 1 ppm): 42%
Observed efficacy (Botrytis cinerea): 13%

CON(Cc1ccc(-c2noc(C(F)(F)F)n2)cc1)C(=O)C1CC1 [Compound II-2, N-methoxy-N-[[4-[5-(trifluoromethyl)-1,2,4-oxadiazol-3-yl]phenyl]methyl]cyclopropanecarboxamide]
Observed efficacy (Septoria tritici [3]; 0.25 ppm): 9%

Cc1cccc(-n2nnn(C)c2=O)c1COc1ccn(-c2ccc(Cl)cc2)n1 [Methyltetraprol, metyltetraprole]
Observed efficacy (Septoria tritici [3]; 0.004 ppm): 0%
Observed efficacy ([1]; 0.063 ppm): 0%
Observed efficacy (Pyricularia oryzae; 0.004 ppm): 3%
Observed efficacy (Pyricularia oryzae; 0.016 ppm): 11%
Observed efficacy (Alternaria solani; 0.004 ppm): 12%
Observed efficacy (Alternaria solani; 0.016 ppm): 31%
Observed efficacy (Botrytis cinerea; 7 days): 52%
